The results in this text go back to US20250188092A1, “RIFAMYCIN ANALOGS” (THE REGENTS OF THE UNIVERSITY OF MICHIGAN, priority 2021, published 2025).

One data set deals with T1, E. coli WT RNAP (Escherichia coli, UniProt P0A8V2).
T1 construct: made in house
The experiment in a line: biochemical.

Data set [1] deals with T2, E. coli D516V (RIF^R) RNAP (Escherichia coli, UniProt P0A8V2, D516V).
T2 construct: made in house
The experiment in a line: biochemical.

Data set [2] has as its target T3, E. coli S531L (RIF^R) RNAP (Escherichia coli, UniProt P0A8V2, S531L).
T3 construct: made in house
The experiment in a line: biochemical.

The subject of another data set is VERO cells (ATCC CRL-81). Kind of data set: Vero cell toxicity. Type of data set: cell-based. The settings on record: Chlorocebus sabaeus, Vero; 72 hours exposure. The protocol:
Cytotoxicity for a mammalian cell line was determined by exposing VERO cells (ATCC CRL-81) to serial dilutions of test compounds for 72 hours, followed by addition of resazurin and measurement of fluorescence after 4 hours incubation (Choules, et al., Antimnicrob. Agents Chemother. 2019, 63, e02204-02218).

In the next data set the test system is DPX2 cells. The settings on record: for DPX2 Viability @ 6.25 μM: 24 h; for DPX2 Viability @ 25 μM: human.
The next data set deals with MTB H37Rv ATCC 27294. The experiment in a line: MIC, microplate Alamar Blue assay (MABA). Type of data set: cell-based, Mycobacterium tuberculosis. The settings on record: for MIC / MIC90: Mycobacterium tuberculosis, MTB H37Rv ATCC 27294, microplate Alamar Blue assay, lowest concentration giving ≥90% reduction in fluorescence; for MIC: read-out: MIC90 MABA.
Another data set deals with M. tuberculosis H37Rv. The experiment in a line: Minimum bactericidal concentration (MBC, CFU Assay). Type of data set: cell-based, Mycobacterium tuberculosis. The settings on record: for MBC99 Day 7 (CFU Assay) MBC99 Rel to RMP: CFU Assay MBC99 relative to rifampin (RMP = 1); for MBC: Mycobacterium tuberculosis, 168 h, Day 7, M. tuberculosis H37Rv, ≥99% reduction in colony forming units, read-out: MBC99 Day 7 (CFU Assay) MBC99.

Structures are written as SMILES. Where only a bound is given, the exact number is not on record here.

Turning to `CO[C@H]1/C=C/O[C@@]2(C)Oc3c(C)c(O)c4c(=O)c(c5oc6cccc(OCCCCN7CCNCC7)c6nc-5c4c3C2=O)NC(=O)/C(C)=C\C=C\[C@H](C)[C@H](O)[C@@H](C)[C@@H](O)[C@@H](C)[C@H](OC(C)=O)[C@@H]1C` [Compound 5d, (7S,9E,11S,12R,13S,14R,15R,16R,17S,18S,19E,21Z)-2,15,17-Trihydroxy-11-methoxy-3,7,12,14,16,18,22-heptamethyl-6,23,37-trioxo-32-[4-(piperazin-1-yl)butoxy]-8,27,38-trioxa-24,34-diazahexacyclo[23.11.1.1^4,7.0^5,36.0^26,35.0^28,33]octatriaconta-1(36)2,4,9,19,21,25,28,30,32,34-undecaen-13-yl acetate], the IC50 (as a rule, the concentration at which inhibition is half-maximal) was 0.006 µM against E. coli WT RNAP, 29 µM in data set [1], 440 µM in data set [2] and greater than 8 µM with VERO cells (ATCC CRL-81). In addition, in the data set on DPX2 cells, the “DPX2 Viability @ 6.25 μM” value came out at 102%. In addition, the “DPX2 Viability @ 25 μM” value in the data set on DPX2 cells was 59%.
`CO[C@H]1/C=C/O[C@@]2(C)Oc3c(C)c(O)c4c(=O)c(c5oc6cccc(OCc7cccc(CN8CCN(C(=O)Cn9ccnc9)CC8)c7)c6nc-5c4c3C2=O)NC(=O)/C(C)=C\C=C\[C@H](C)[C@H](O)[C@@H](C)[C@@H](O)[C@@H](C)[C@H](OC(C)=O)[C@@H]1C` [Compound 11e, (7S,9E,11S,12R,13S,14R,15R,16R,17S,18S,19E,21Z)-2,15,17-Trihydroxy-32-{[3-({4-[2-(1H-imidazol-1-yl)acetyl]piperazin-1-yl}methyl)phenyl]methoxy}-11-methoxy-3,7,12,14,16,18,22-heptamethyl-6,23,37-trioxo-8,27,38-trioxa-24,34-diazahexacyclo[23.11.1.1^4,7.0^5,36.0^26,35.0^28,33]octatriaconta-1(36)2,4,9,19,21,25,28,30,32,34-undecaen-13-yl acetate] displayed an IC50 in the data set on VERO cells (ATCC CRL-81) greater than 8 µM. In addition, in the data set with MTB H37Rv ATCC 27294, the “MIC90 MABA Rel to RMP” value was 0.93 and the MIC came to 0.048 µM. In addition, in the data set on M. tuberculosis H37Rv, the “MBC99 Day 7 (CFU Assay) MBC99 Rel to RMP” value was found to be 0.15 and the MBC was determined as 0.02 µM. Also, in the data set on DPX2 cells, the “DPX2 Viability @ 6.25 μM” value stood at 105% and the “DPX2 Viability @ 25 μM” value was 96%.
The compound `CO[C@H]1/C=C/O[C@@]2(C)Oc3c(C)c(O)c4c(=O)c(c5oc6cc(N7CCN(CC(C)C)CC7)cc(OCc7ccc(CN8CCNCC8)cc7)c6nc-5c4c3C2=O)NC(=O)/C(C)=C\C=C\[C@H](C)[C@H](O)[C@@H](C)[C@@H](O)[C@@H](C)[C@H](OC(C)=O)[C@@H]1C` [Compound 17b, (7S,9E,11S,12R,13S,14R,15R,16R,17S,18S,19E,21Z)-2,15,17-Trihydroxy-11-methoxy-3,7,12,14,16,18,22-heptamethyl-30-[4-(2-methylpropyl)piperazin-1-yl]-6,23,37-trioxo-32-({4-[(piperazin-1-yl)methyl]phenyl}methoxy)-8,27,38-trioxa-24,34-diazahexacyclo[23.11.1.1^4,7.0^5,36.0^26,35.0^28,33]octatriaconta-1(36)2,4,9,19,21,25,28,30,32,34-undecaen-13-yl acetate] returned an IC50 in the data set on VERO cells (ATCC CRL-81) of 7.9 µM. In addition, in the data set with MTB H37Rv ATCC 27294, the “MIC90 MABA Rel to RMP” value stood at 0.24 and the MIC is less than 0.016 µM. Also, in the data set with M. tuberculosis H37Rv, the “MBC better than that of rifampin” value is on record as roughly 5 fold, the “MBC99 Day 7 (CFU Assay) MBC99 Rel to RMP” value was found to be 0.15 and the MBC is 0.02 µM. For the same compound, in the data set with DPX2 cells, the “DPX2 Viability @ 6.25 μM” value is 109% and the “DPX2 Viability @ 25 μM” value is recorded as 45%.
Consider `CO[C@H]1/C=C/O[C@@]2(C)Oc3c(C)c(O)c4c(=O)c(c5oc6cc(N7CCN(C(=O)c8cccc(-n9ccnc9)c8)CC7)cc(C)c6nc-5c4c3C2=O)NC(=O)/C(C)=C\C=C\[C@H](C)[C@H](O)[C@@H](C)[C@@H](O)[C@@H](C)[C@H](OC(C)=O)[C@@H]1C` [Compound 29a, (7S,9E,11S,12R,13S,14R,15R,16R,17S,18S,19E,21Z)-2,15,17-Trihydroxy-30-{4-[3-(1H-imidazol-1-yl)benzoyl]piperazin-1-yl}-11-methoxy-3,7,12,14,16,18,22,32-octamethyl-6,23,37-trioxo-8,27,38-trioxa-24,34-diazahexacyclo[23.11.1.1^4,7.0^5,36.0^26,35.0^28,33]octatriaconta-1(36)2,4,9,19,21,25,28,30,32,34-undecaen-13-yl acetate], for which the IC50 with VERO cells (ATCC CRL-81) is greater than 10 µM. For the same compound, in the data set with MTB H37Rv ATCC 27294, the “MIC90 MABA Rel to RMP” value came to 1.33; the MIC90 (commonly an inhibitory concentration at the 90% level, which refers to growth in some studies and to a panel of isolates in others) worked out at 0.036 µM. Also, in the data set with M. tuberculosis H37Rv, the “MBC99 Day 7 (CFU Assay) MBC99 Rel to RMP” value turned out to be 0.15 and the MBC was 0.02 µM. Besides, the “DPX2 Viability @ 25 μM” value in the data set on DPX2 cells was found to be 149%.
In the data set with VERO cells (ATCC CRL-81), `CO[C@H]1/C=C/O[C@@]2(C)Oc3c(C)c(O)c4c(=O)c(c5oc6cc(N7CCN(CCCO[C@@H]8COc9nc([N+](=O)[O-])cn9C8)CC7)cc(C)c6nc-5c4c3C2=O)NC(=O)/C(C)=C\C=C\[C@H](C)[C@H](O)[C@@H](C)[C@@H](O)[C@@H](C)[C@H](OC(C)=O)[C@@H]1C` [Compound 29d, (7S,9E,11S,12R,13S,14R,15R,16R,17S,18S,19E,21Z)-2,15,17-Trihydroxy-11-methoxy-3,7,12,14,16,18,22,32-octamethyl-30-[4-(3-{[(6S)-2-nitro-5H,6H,7H-imidazo[2,1-b][1,3]oxazin-6-yl]oxy}propyl)piperazin-1-yl]-6,23,37-trioxo-8,27,38-trioxa-24,34-diazahexacyclo[23.11.1.1^4,7.0^5,36.0^26,35.0^28,33]octatriaconta-1(36)2,4,9,19,21,25,28,30,32,34-undecaen-13-yl acetate] gave an IC50 greater than 10 µM. In addition, in the data set on MTB H37Rv ATCC 27294, the “MIC90 MABA Rel to RMP” value is listed as 1.37 and the MIC90 was found to be 0.037 µM. In the data set with M. tuberculosis H37Rv, the “MBC99 Day 7 (CFU Assay) MBC99 Rel to RMP” value is given as 0.62 and the MBC is 0.08 µM. Further, in the data set with DPX2 cells, the “DPX2 Viability @ 6.25 μM” value was determined as 114% and the “DPX2 Viability @ 25 μM” value is 101%.
In turn, `CO[C@H]1/C=C/O[C@@]2(C)Oc3c(C)c(O)c4c(=O)c(c5oc6cc(C)cc(N7CCN(C(=O)c8cccc(-n9ccnc9)c8)CC7)c6nc-5c4c3C2=O)NC(=O)/C(C)=C\C=C\[C@H](C)[C@H](O)[C@@H](C)[C@@H](O)[C@@H](C)[C@H](OC(C)=O)[C@@H]1C` [Compound 30f, (7S,9E,11S,12R,13S,14R,15R,16R,17S,18S,19E,21Z)-2,15,17-Trihydroxy-32-{4-[3-(1H-imidazol-1-yl)benzoyl]piperazin-1-yl}-11-methoxy-3,7,12,14,16,18,22,30-octamethyl-6,23,37-trioxo-8,27,38-trioxa-24,34-diazahexacyclo[23.11.1.1^4,7.0^5,36.0^26,35.0^28,33]octatriaconta-1(36)2,4,9,19,21,25,28,30,32,34-undecaen-13-yl acetate] yielded an IC50 in the data set with VERO cells (ATCC CRL-81) greater than 10 µM. Further, in the data set on MTB H37Rv ATCC 27294, the “MIC90 MABA Rel to RMP” value is recorded as 1.63 and the MIC90 came out at 0.044 µM. For the same compound, in the data set with DPX2 cells, the “DPX2 Viability @ 6.25 μM” value stood at 98% and the “DPX2 Viability @ 25 μM” value turned out to be 64%.
On to `CO[C@H]1/C=C/O[C@@]2(C)Oc3c(C)c(O)c4c(=O)c(c5oc6cc(C)cc(N7CCN(C(=O)c8cccc(-c9ccccn9)c8)CC7)c6nc-5c4c3C2=O)NC(=O)/C(C)=C\C=C\[C@H](C)[C@H](O)[C@@H](C)[C@@H](O)[C@@H](C)[C@H](OC(C)=O)[C@@H]1C` [Compound 30g, (7S,9E,11S,12R,13S,14R,15R,16R,17S,18S,19E,21Z)-2,15,17-Trihydroxy-11-methoxy-3,7,12,14,16,18,22,30-octamethyl-6,23,37-trioxo-32-{4-[3-(pyridin-2-yl)benzoyl]piperazin-1-yl}-8,27,38-trioxa-24,34-diazahexacyclo[23.11.1.1^4,7.0^5,36.0^26,35.0^28,33]octatriaconta-1(36)2,4,9,19,21,25,28,30,32,34-undecaen-13-yl acetate], for which the IC50 with VERO cells (ATCC CRL-81) was greater than 10 µM. In the data set with MTB H37Rv ATCC 27294, the “MIC90 MABA Rel to RMP” value is 0.96 and the MIC90 is 0.026 µM. Also, in the data set on M. tuberculosis H37Rv, the “MBC99 Day 7 (CFU Assay) MBC99 Rel to RMP” value is on record as less than 0.08 and the MBC is less than 0.02 µM. Moreover, in the data set with DPX2 cells, the “DPX2 Viability @ 6.25 μM” value was 99% and the “DPX2 Viability @ 25 μM” value came to 61%.
With `CO[C@H]1/C=C/O[C@@]2(C)Oc3c(C)c(O)c4c(=O)c(c5oc6cc(C)cc(N7CCN(C(=O)c8ccc9occc9c8)CC7)c6nc-5c4c3C2=O)NC(=O)/C(C)=C\C=C\[C@H](C)[C@H](O)[C@@H](C)[C@@H](O)[C@@H](C)[C@H](OC(C)=O)[C@@H]1C` [Compound 30h, (7S,9E,11S,12R,13S,14R,15R,16R,17S,18S,19E,21Z)-32-[4-(1-Benzofuran-5-carbonyl)piperazin-1-yl]-2,15,17-trihydroxy-11-methoxy-3,7,12,14,16,18,22,30-octamethyl-6,23,37-trioxo-8,27,38-trioxa-24,34-diazahexacyclo[23.11.1.1^4,7.0^5,36.0^26,35.0^28,33]octatriaconta-1(36)2,4,9,19,21,25,28,30,32,34-undecaen-13-yl acetate], in the data set with VERO cells (ATCC CRL-81), the IC50 was greater than 10 µM. Further, in the data set on MTB H37Rv ATCC 27294, the “MIC90 MABA Rel to RMP” value was found to be 0.70 and the MIC90 was determined as 0.019 µM. Moreover, in the data set with M. tuberculosis H37Rv, the “MBC99 Day 7 (CFU Assay) MBC99 Rel to RMP” value is less than 0.08 and the MBC is less than 0.02 µM. Moreover, in the data set on DPX2 cells, the “DPX2 Viability @ 6.25 μM” value is listed as 100% and the “DPX2 Viability @ 25 μM” value was 57%.
